This passage reports TGI results from PubChem BioAssay (NCI).

Among the test systems are 786-0 renal; BT-549 breast; COLO 205 colon; DU-145 prostate; HL-60(TB) leukemia; HOP-62 NSCLC; HT29 colon; K-562 leukemia; LOX IMVI melanoma; MDA-MB-231 breast; MDA-N; MOLT-4 leukemia; PC-3 prostate; SK-MEL-2 melanoma; SN12C renal; SNB-75 CNS; UACC-62 melanoma; UO-31 renal; NCI-H522 lung; SF-539 CNS.
What all share (assay): inhibition of tumour cell growth, NCI panel, 48 h

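1) Cells in 96-well plates. 2) Compound, 48 h, 5 concentrations. 3) Linear interpolation between surrounding doses. 4) Unreached endpoint = highest concentration. Definition used: TGI = concentration required for complete inhibition of growth.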

As for `O=C1NC(=O)/C(=C/c2ccc(S(=O)(=O)N/N=C\C(O)C(O)C(O)C(O)CO)cc2)N1` (configuration not stated), the TGI in the test on 786-0 renal, in the test on BT-549 breast, in the test on COLO 205 colon, with DU-145 prostate, in the test with HL-60(TB) leukemia and with HOP-62 NSCLC was > 100 µM throughout. Also, the TGI in the test on HT29 colon, in the test with K-562 leukemia, with LOX IMVI melanoma, in the test with MDA-MB-231 breast, in the test on MDA-N and in the test with MOLT-4 leukemia was > 100 µM in each case. In addition, the TGI in the test with PC-3 prostate, in the test on SK-MEL-2 melanoma, with SN12C renal, in the test on SNB-75 CNS, in the test with UACC-62 melanoma and in the test with UO-31 renal was > 100 µM each time.
`CN(C)c1ccc(-c2ccc(N(C)C)c3n[se]nc23)c2n[se]nc12`: the TGI with 786-0 renal, with BT-549 breast, in the test on DU-145 prostate, in the test on HL-60(TB) leukemia, with HOP-62 NSCLC and in the test with HT29 colon was > 100 µM in each case. Further, the TGI in the test with K-562 leukemia, in the test on LOX IMVI melanoma, in the test with MDA-MB-231 breast, in the test with MDA-N, with MOLT-4 leukemia and in the test with NCI-H522 lung was > 100 µM throughout. The TGI with PC-3 prostate, in the test on SF-539 CNS, with SK-MEL-2 melanoma, in the test on SN12C renal, with SNB-75 CNS and in the test with UACC-62 melanoma was > 100 µM each time. In addition, the TGI in the test on UO-31 renal was > 100 µM.
On to `COC(=O)C1=CN(C2CCCCC2)C2(c3ccccc3)c3ccccc3C(=O)OC(=O)C12` (configuration not stated), for which the TGI in the test on 786-0 renal, in the test with BT-549 breast, in the test with COLO 205 colon, in the test on DU-145 prostate, in the test on HL-60(TB) leukemia and in the test on HOP-62 NSCLC was > 100 µM in each case. In addition, the TGI with HT29 colon, with K-562 leukemia, in the test on LOX IMVI melanoma, in the test with MDA-MB-231 breast, in the test on MDA-N and with MOLT-4 leukemia was > 100 µM throughout. Further, the TGI in the test on NCI-H522 lung, in the test with PC-3 prostate, with SF-539 CNS, in the test on SK-MEL-2 melanoma, with SN12C renal and with SNB-75 CNS was > 100 µM throughout. Further, the TGI in the test on UO-31 renal was > 100 µM.
For `COc1ccc(N=Nc2c(C)c(C#N)c(=S)n(C3OC(CO)C(O)C(O)C3O)c2C)cc1` (configuration not stated), the TGI in the test on 786-0 renal, with BT-549 breast, in the test with COLO 205 colon, in the test on DU-145 prostate, in the test with HL-60(TB) leukemia and with HOP-62 NSCLC was > 100 µM each time. Besides, the TGI with HT29 colon is > 100 µM; in the test on K-562 leukemia it was > 100 µM; in the test with LOX IMVI melanoma, > 100 µM; in the test with MDA-MB-231 breast, > 100 µM; with MDA-N, > 100 µM; with MOLT-4 leukemia it was 84.6 µM. Moreover, the TGI with PC-3 prostate, in the test on SF-539 CNS, with SK-MEL-2 melanoma, with SNB-75 CNS, in the test on UACC-62 melanoma and in the test with UO-31 renal was > 100 µM throughout.
`O=C(N/N=C/c1ccccc1O)c1ccccc1Nc1ccccc1C(=O)N/N=C/c1ccccc1O`: the TGI in the test with 786-0 renal is > 24.2 µM; in the test on BT-549 breast, > 100 µM; in the test with COLO 205 colon it was > 100 µM; with DU-145 prostate, > 100 µM; in the test on HL-60(TB) leukemia, > 100 µM; with HOP-62 NSCLC, > 20.7 µM. Moreover, the TGI with HT29 colon is 4.99 µM; with K-562 leukemia, > 100 µM; with LOX IMVI melanoma, > 100 µM; with MDA-MB-231 breast, > 100 µM; in the test on MDA-N it was > 100 µM; in the test on NCI-H522 lung it was > 100 µM. Moreover, the TGI with PC-3 prostate, in the test on SF-539 CNS, with SK-MEL-2 melanoma, in the test on SNB-75 CNS, with UACC-62 melanoma and with UO-31 renal was > 100 µM each time.
`O=C(CN1CCOCC1)c1ccc2c(c1)oc(=O)n2CCN1CCCC1`: the TGI in the test with 786-0 renal, in the test with BT-549 breast, with COLO 205 colon, in the test on DU-145 prostate, with HL-60(TB) leukemia and with HOP-62 NSCLC was > 100 µM each time. Besides, the TGI in the test with HT29 colon, in the test with K-562 leukemia, in the test with LOX IMVI melanoma, with MDA-MB-231 breast, with MDA-N and in the test with MOLT-4 leukemia was > 100 µM throughout. In addition, the TGI with PC-3 prostate, in the test with SF-539 CNS, with SK-MEL-2 melanoma, in the test on SN12C renal, in the test with SNB-75 CNS and in the test on UACC-62 melanoma was > 100 µM in each case.
Take `O=c1c2cc(Cl)ccc2[nH]c2cc(O)cc(O)c12`: the TGI in the test with 786-0 renal, in the test with BT-549 breast, in the test with COLO 205 colon, with DU-145 prostate, with HL-60(TB) leukemia and in the test on HOP-62 NSCLC was > 10 µM in each case. In addition, the TGI with HT29 colon, with K-562 leukemia, with MDA-MB-231 breast, in the test on MDA-N, with MOLT-4 leukemia and with NCI-H522 lung was > 10 µM each time. For the same compound, the TGI in the test with PC-3 prostate, in the test with SF-539 CNS, with SK-MEL-2 melanoma, with SN12C renal, in the test with SNB-75 CNS and with UACC-62 melanoma was > 10 µM each time.
In the case of `C=CC(Br)(CBr)CCC(Br)C(C)(C)Cl` (configuration not stated), the TGI came to 5.64 µM in the test on 786-0 renal; 21.8 µM with BT-549 breast; 4.36 µM with COLO 205 colon; 9.92 µM in the test on DU-145 prostate; 2.6 µM in the test with HL-60(TB) leukemia; 7.87 µM in the test with HOP-62 NSCLC. In addition, the TGI worked out at 2.9 µM in the test with HT29 colon; 5.1 µM with K-562 leukemia; 6.95 µM in the test with MDA-MB-231 breast; 8.34 µM with MDA-N; 4.05 µM in the test with MOLT-4 leukemia; 2.79 µM with NCI-H522 lung. Also, the TGI with PC-3 prostate was found to be 9.1 µM; in the test on SF-539 CNS, 3.78 µM; with SK-MEL-2 melanoma, 29.5 µM; in the test with SN12C renal it was 16.5 µM; in the test with SNB-75 CNS it was 8.72 µM; in the test on UACC-62 melanoma, 17.3 µM. The compound further showed a TGI in the test with UO-31 renal of 3.97 µM.
